Key:
[1] = tested on: Staphylococcus aureus 29213; test: Propidium iodide uptake assay; format: cell-based; conditions: 0.5 × MIC, MIC and 2 × MIC; 10 μg/mL PI; ex 535 nm, em 617 nm
Method: Staphylococcus aureus 29213 was washed three times with buffer (5 mM HEPES, 5 mM glucose, pH 7.4) after the bacterium grew to the mid-log phase and then diluted to an OD600 = 0.05. Propidium iodide was then added to the final concentration of 10 μg/mL and incubated for 30 min at 4°C. The peptides were added to 12-well plates, which were filled with 2 mL of the cell suspension. An F-4500 fluorescence spectrophotometer (Hitachi, Japan) was employed to measure the fluorescence value at an excitation wavelength of 535 nm and an emission wavelength of 617 nm. Maximal augmentation was monitored, and the fluorescence of the mixture of bacteria and dye served as the blank control ([Morita et al., 2015]).

S. aureus 29213 = test: Cytoplasmic membrane depolarization, diSC3-5; format: cell-based, Staphylococcus aureus; conditions: 0.4 μM diSC3-5, 100 mM KCl, ex 622 nm, em 670 nm
Method: The dye diSC3-5 was employed to assay cytoplasmic membrane depolarization activities ([Shao et al., 2018]). S. aureus 29213 was diluted to an OD600 = 0.05 after washing three times with buffer (5 mM HEPES, 5 mM glucose, pH 7.4) when the bacteria grew to mid-log phase. Then, diSC3-5 at a final concentration of 0.4 μM was added into the medium and incubated for 1–1.5 h. The final concentration of 100 mM KCl was then added to the solution for 15 min. The peptides were added to 12-well plates, which were filled with 2 mL of cell suspension. An F-4500 fluorescence spectrophotometer (Hitachi, Japan) was employed to measure the fluorescence value at an excitation wavelength of 622 nm and an emission wavelength of 670 nm. Maximal augmentation was monitored, and the fluorescence of the mixture of bacteria and dye served as the blank control.

[2] = tested on: Staphylococcus aureus 29213; test: Bacterial resistance development, serial passaging; format: cell-based; conditions: serial passage at sub-MIC for 15 days
Description: Staphylococcus aureus 29213 was employed to assess the development of resistance by the serial passaging method, as previously described ([Lyu et al., 2017]). Minimum inhibitory concentration testing was first conducted for all of the compounds to be tested, as described above. S. aureus was harvested from 96-well plates of sub-MIC levels, diluted in MHB to a concentration of 2–7 × 10^5 CFU/mL, and then subjected to MIC determination for up to 15 days. The change in MIC values determines the development of antibiotic resistance in S. aureus.

Row | Substance | PI uptake (PI fluorescence) [1] | cytoplasmic membrane depolarization (diSC3-5 fluorescence) (S. aureus 29213) | change in MIC value, 15th day versus first day [2] [fold]
1 | melittin [reference compound] | rapidly disrupted the bacterial membrane and caused PI uptake | rapid fluorescence intensity increase | –
2 | penicillin [reference compound] | – | – | 16

Source: publication PMC7516806, “Hybrid Antimicrobial Peptide Targeting Staphylococcus aureus and Displaying Anti-infective Activity in a Murine Model” (Frontiers in Microbiology, 2020)
